Drawing on US11912686B2 (Gilead Sciences, Inc., priority 2020, dated 2024), this text covers EC50 for 28 compounds.

human LPAR1, sequence (Q92633 whole entry): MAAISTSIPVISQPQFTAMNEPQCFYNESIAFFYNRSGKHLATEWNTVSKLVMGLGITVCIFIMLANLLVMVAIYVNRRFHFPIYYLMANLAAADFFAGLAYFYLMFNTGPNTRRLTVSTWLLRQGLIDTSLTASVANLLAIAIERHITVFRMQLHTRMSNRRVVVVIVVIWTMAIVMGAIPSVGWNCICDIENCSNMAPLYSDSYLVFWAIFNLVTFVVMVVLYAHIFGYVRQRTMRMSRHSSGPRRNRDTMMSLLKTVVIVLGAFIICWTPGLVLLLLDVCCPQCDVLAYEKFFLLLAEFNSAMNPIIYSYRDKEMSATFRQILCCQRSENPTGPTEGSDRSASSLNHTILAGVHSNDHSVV

The assay addresses human LPAR1 (Homo sapiens (Human), UniProt Q92633). The experiment in a line: LPAR1 intracellular calcium mobilization assay (antagonist mode, FLIPR). Type of assay: cell-based. The settings on record: CHO-K1 EDG2 cells expressing human LPAR1, LPA 18:2 at EC80 (100 nM), test compound 0.5 nM to 10 μM.
Take `C[C@@H](OC(=O)Nc1c(-c2ccc(NC(=O)C(F)F)cn2)nnn1C)c1cccnc1Cl` [Compound 36, (R)-1-(2-chloropyridin-3-yl)ethyl (4-(5-(2,2-difluoroacetamido)pyridin-2-yl)-1-methyl-1H-1,2,3-triazol-5-yl)carbamate]: the EC50 (usually the concentration that produces a half-maximal response) worked out at 112 nM.

On to `C[C@@H](OC(=O)Nc1c(-c2ccc(NC(=O)C3CC4(COC4)C3)cn2)nnn1C)c1cccnc1Cl` [Compound 42, (R)-1-(2-chloropyridin-3-yl)ethyl (4-(5-(2-oxaspiro[3.3]heptane-6-carboxamido)pyridin-2-yl)-1-methyl-1H-1,2,3-triazol-5-yl)carbamate], for which the half-maximal effective concentration (EC50) came out at 201 nM.

With `C[C@@H](OC(=O)Nc1c(-c2ccc(NC(=O)CC(F)F)cn2)nnn1C)c1cccnc1Cl` [Compound 107, (R)-1-(2-chloropyridin-3-yl)ethyl (4-(5-(3,3-difluoropropanamido)pyridin-2-yl)-1-methyl-1H-1,2,3-triazol-5-yl)carbamate], the EC50 stood at 10000 nM.

Regarding `CCCC(=O)Nc1ccc(-c2nnn(C)c2NC(=O)O[C@H](C)c2cccnc2Cl)nc1` [Compound 30, (R)-1-(2-chloropyridin-3-yl)ethyl (4-(5-butyramidopyridin-2-yl)-1-methyl-1H-1,2,3-triazol-5-yl)carbamate], the EC50 was determined as 516 nM.

Regarding `C[C@@H](OC(=O)Nc1c(-c2ccc(NC(=O)c3ccc(Cl)nc3)cn2)nnn1C)c1cc(F)cnc1F` [Compound 212, (R)-1-(2,5-difluoropyridin-3-yl)ethyl (4-(5-(6-chloronicotinamido)pyridin-2-yl)-1-methyl-1H-1,2,3-triazol-5-yl)carbamate], the EC50 turned out to be 56.4 nM.

Consider `C[C@@H](OC(=O)Nc1c(-c2ccc(NC(=O)C3CC(NC4CC4)C3)cn2)nnn1C)c1cccnc1Cl` (stereo partly shown) [Compound 311], for which the EC50 worked out at 1530 nM.

`C[C@@H](OC(=O)Nc1c(-c2ccc(NC(=O)c3cncc(F)c3Cl)cn2)nnn1C)c1cc(F)cnc1F` [Compound 263, (R)-1-(2,5-difluoropyridin-3-yl)ethyl (4-(5-(4-chloro-5-fluoronicotinamido)pyridin-2-yl)-1-methyl-1H-1,2,3-triazol-5-yl)carbamate]: the EC50 came out at 691 nM.

In the case of `C[C@@H](OC(=O)Nc1c(-c2ccc(NC(=O)c3cccnc3)cn2)nnn1C)c1cccnc1Cl` [Compound 58, (R)-1-(2-chloropyridin-3-yl)ethyl (1-methyl-4-(5-(nicotinamido)pyridin-2-yl)-1H-1,2,3-triazol-5-yl)carbamate], the EC50 was determined as 205 nM.

Consider `C[C@@H](OC(=O)Nc1c(-c2ccc(NC(=O)[C@@H]3C[C@@H]3F)cn2)nnn1C)c1cccnc1Cl` [Compound 53, (R)-1-(2-chloropyridin-3-yl)ethyl (4-(5-((1S,2S)-2-fluorocyclopropane-1-carboxamido)pyridin-2-yl)-1-methyl-1H-1,2,3-triazol-5-yl)carbamate], for which the concentration for a half-maximal effect (EC50) was 1460 nM.

For the compound `Cc1nonc1C(=O)Nc1ccc(-c2nnn(C)c2NC(=O)O[C@H](C)c2cc(F)cnc2F)nc1` [Compound 239, (R)-1-(2,5-difluoropyridin-3-yl)ethyl (1-methyl-4-(5-(4-methyl-1,2,5-oxadiazole-3-carboxamido)pyridin-2-yl)-1H-1,2,3-triazol-5-yl)carbamate], the EC50 was 62.3 nM.

`C[C@@H](OC(=O)Nc1c(-c2ccc(NC(=O)C34CC(C(F)F)(C3)C4)cn2)nnn1C)c1cccnc1Cl` [Compound 45, (R)-1-(2-chloropyridin-3-yl)ethyl (4-(5-(3-(difluoromethyl)bicyclo[1.1.1]pentane-1-carboxamido)pyridin-2-yl)-1-methyl-1H-1,2,3-triazol-5-yl)carbamate]: the EC50 is 40.8 nM.

`C[C@@H](OC(=O)Nc1c(-c2ccc(NC(=O)[C@H]3C[C@H](F)C3)cn2)nnn1C)c1cccnc1Cl` [Compound 62, (R)-1-(2-chloropyridin-3-yl)ethyl (4-(5-((1r,3R)-3-fluorocyclobutane-1-carboxamido)pyridin-2-yl)-1-methyl-1H-1,2,3-triazol-5-yl)carbamate]: the EC50 was found to be 110 nM.

Regarding `C[C@@H](OC(=O)Nc1c(-c2ccc(NC(=O)c3cnc(N4CCOCC4)nc3)cn2)nnn1C)c1cc(F)cnc1F` [Compound 284, (R)-1-(2,5-difluoropyridin-3-yl)ethyl (1-methyl-4-(5-(2-morpholinopyrimidine-5-carboxamido)pyridin-2-yl)-1H-1,2,3-triazol-5-yl)carbamate], the EC50 was 908 nM.

For the compound `C[C@@H](OC(=O)Nc1c(-c2ccc(NC(=O)[C@H]3[C@@H]4CS(=O)(=O)C[C@@H]43)cn2)nnn1C)c1cc(F)cnc1F` (racemic) [Compound 229, (R)-1-(2,5-difluoropyridin-3-yl)ethyl (4-(5-((1RS,5SR,6SR)-3,3-dioxido-3-thiabicyclo[3.1.0]hexane-6-carboxamido)pyridin-2-yl)-1-methyl-1H-1,2,3-triazol-5-yl)carbamate], the EC50 stood at 864 nM.

As to `C[C@@H](OC(=O)Nc1c(-c2ncc(NC(=O)C34CC(F)(C3)C4)cn2)nnn1C)c1cc(F)cnc1Cl` [Compound 330, (R)-1-(2-chloro-5-fluoropyridin-3-yl)ethyl (4-(5-(3-fluorobicyclo[1.1.1]pentane-1-carboxamido)pyrimidin-2-yl)-1-methyl-1H-1,2,3-triazol-5-yl)carbamate], the EC50 is 600 nM.

As to `C[C@@H](OC(=O)Nc1c(-c2ccc(NC(=O)c3ccc(Cl)nc3)cn2)nnn1C)c1cccnc1F` [Compound 292, (R)-1-(2-fluoropyridin-3-yl)ethyl (4-(5-(6-chloronicotinamido)pyridin-2-yl)-1-methyl-1H-1,2,3-triazol-5-yl)carbamate], the EC50 was 143 nM.

In the case of `C[C@@H](OC(=O)Nc1c(-c2ccc(NC(=O)c3cnc(C(F)(F)F)nc3)cn2)nnn1C)c1cc(F)cnc1Cl` [Compound 290, (R)-1-(2-chloro-5-fluoropyridin-3-yl)ethyl (1-methyl-4-(5-(2-(trifluoromethyl)pyrimidine-5-carboxamido)pyridin-2-yl)-1H-1,2,3-triazol-5-yl)carbamate], the EC50 turned out to be 10.9 nM.

As for `C[C@@H](OC(=O)Nc1c(-c2ccc(NC(=O)C3OCCO3)cn2)nnn1C)c1cccnc1Cl` [Compound 153, (R)-1-(2-chloropyridin-3-yl)ethyl (4-(5-(1,3-dioxolane-2-carboxamido)pyridin-2-yl)-1-methyl-1H-1,2,3-triazol-5-yl)carbamate], the EC50 was found to be 933 nM.

`Cc1ncc(F)cc1[C@@H](C)OC(=O)Nc1c(-c2ccc(NC(=O)[C@@H]3CC3(F)F)cn2)nnn1C` [Compound 180, (R)-1-(5-fluoro-2-methylpyridin-3-yl)ethyl (4-(5-((S)-2,2-difluorocyclopropane-1-carboxamido)pyridin-2-yl)-1-methyl-1H-1,2,3-triazol-5-yl)carbamate]: the EC50 worked out at 123 nM.

Take `C[C@@H](OC(=O)Nc1c(-c2ccc(NC(=O)C3(C#N)CC34CCC4)cn2)nnn1C)c1cccnc1Cl` (stereo partly drawn) [Compound 74, (R)-1-(2-chloropyridin-3-yl)ethyl (4-(5-(1-cyanospiro[2.3]hexane-1-carboxamido)pyridin-2-yl)-1-methyl-1H-1,2,3-triazol-5-yl)carbamate]: the EC50 turned out to be 1340 nM.

With `CC(=O)Nc1ccc(-c2nnn(C)c2NC(=O)OC(C)c2ccc(F)nc2Cl)nc1` (stereo not shown) [Compound 182, 1-(2-chloro-6-fluoropyridin-3-yl)ethyl (4-(5-acetamidopyridin-2-yl)-1-methyl-1H-1,2,3-triazol-5-yl)carbamate], the EC50 amounted to 2050 nM.

Take `C[C@@H](OC(=O)Nc1c(-c2ccc(NC(=O)C3CC(=O)C3)cn2)nnn1C)c1cccnc1Cl` [Compound 83, (R)-1-(2-chloropyridin-3-yl)ethyl (1-methyl-4-(5-(3-oxocyclobutane-1-carboxamido)pyridin-2-yl)-1H-1,2,3-triazol-5-yl)carbamate]: the EC50 was found to be 344 nM.

For `C[C@@H](OC(=O)Nc1c(-c2ccc(NC(=O)c3cnc(C(F)(F)F)nc3)cn2)nnn1C)c1cc(F)cnc1F` [Compound 251, (R)-1-(2,5-difluoropyridin-3-yl)ethyl (1-methyl-4-(5-(2-(trifluoromethyl)pyrimidine-5-carboxamido)pyridin-2-yl)-1H-1,2,3-triazol-5-yl)carbamate], the EC50 is 38.5 nM.

Take `C[C@@H](OC(=O)Nc1c(-c2ccc(NC(=O)c3cnc(C4CC4)nc3)cn2)nnn1C)c1cc(F)cnc1F` [Compound 283, (R)-1-(2,5-difluoropyridin-3-yl)ethyl (4-(5-(2-cyclopropylpyrimidine-5-carboxamido)pyridin-2-yl)-1-methyl-1H-1,2,3-triazol-5-yl)carbamate]: the EC50 amounted to 82.4 nM.

For `C[C@@H](OC(=O)Nc1c(-c2cnc(NC(=O)c3ccc(C(F)F)nc3)cn2)nnn1C)c1cc(F)cnc1F` [Compound 321, (R)-1-(2,5-difluoropyridin-3-yl)ethyl (4-(5-(6-(difluoromethyl)nicotinamido)pyrazin-2-yl)-1-methyl-1H-1,2,3-triazol-5-yl)carbamate], the EC50 is 309 nM.

Consider `CC#CC(=O)Nc1ccc(-c2nnn(C)c2NC(=O)O[C@H](C)c2cccnc2Cl)nc1` [Compound 76, (R)-1-(2-chloropyridin-3-yl)ethyl (4 (5-(but-2-ynamido)pyridin-2-yl)-1-methyl-1H-1,2,3-triazol-5-yl)carbamate], for which the EC50 stood at 275 nM.

For the compound `C[C@@H](OC(=O)Nc1c(-c2ccc(NC(=O)[C@@H]3C[C@H]3C(F)(F)F)cn2)nnn1C)c1cc(F)cnc1F` (mixture of isomers) [Compound 209, (R)-1-(2,5-difluoropyridin-3-yl)ethyl (1-methyl-4-(5-((1RS,2RS)-2-(trifluoromethyl)cyclopropane-1-carboxamido)pyridin-2-yl)-1H-1,2,3-triazol-5-yl)carbamate], the EC50 is 17.7 nM.

Consider `C[C@@H](OC(=O)Nc1c(-c2ccc(NC(=O)[C@H]3[C@H](c4ccccc4)C3(F)F)cn2)nnn1C)c1cc(F)cnc1F` (mixture of isomers) [Compound 247, (R)-1-(2,5-difluoropyridin-3-yl)ethyl (4-(5-((1RS,3RS)-2,2-difluoro-3-phenylcyclopropane-1-carboxamido)pyridin-2-yl)-1-methyl-1H-1,2,3-triazol-5-yl)carbamate], for which the EC50 is 13 nM.
